PubChem BioAssay (NCI)
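Following 48 hours of exposure in 96-well plates, responses at five concentrations were used to interpolate endpoints linearly. Abbreviation: GI50, concentration required for 50% inhibition of growth. The concentration for full growth arrest is given as TGI.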

What was measured:
Experiment in all cases: NCI tumour cell line growth inhibition, 48 h
[1] = system: SR leukemia
[2] = system: SW-620 colon
[3] = system: HT29 colon
[4] = system: CCRF-CEM leukemia
[5] = system: OVCAR-5 ovarian
[6] = system: HS 578T breast
[7] = system: ACHN renal
[8] = system: NCI-H522 lung
[9] = system: DU-145 prostate
[10] = system: NCI/ADR-RES ovarian

CC(C)C1C(=O)N2CCCC2C2(O)OC(NC(=O)C3C=C4c5cccc6[nH]cc(c56)CC4N(C)C3)(C(C)C)C(=O)N12 (centres undefined)
TGI [1]: 68.3 µM | TGI [2]: > 100 µM | TGI [3]: 37.5 µM | TGI [4]: 91.3 µM | TGI [5]: 29.7 µM | TGI [6]: > 100 µM | TGI [7]: 43.4 µM | TGI [8]: 74.5 µM | TGI [9]: > 100 µM | TGI [10]: 57.5 µM

CCCCCCN(CCCCCC)C(=N)c1ccnc2ccccc12
GI50 [1]: 1.74 µM | TGI [1]: 5.34 µM | GI50 [2]: 3.27 µM | TGI [2]: 17.8 µM | GI50 [3]: 0.835 µM | TGI [3]: 7.88 µM | GI50 [4]: 3.17 µM | TGI [4]: 18.4 µM | GI50 [5]: 9.64 µM | TGI [5]: 21.7 µM | GI50 [6]: 12 µM | TGI [6]: 47.1 µM | GI50 [7]: 4.23 µM | TGI [7]: 16.3 µM | GI50 [8]: 2.55 µM | TGI [8]: 11 µM | GI50 [9]: 13.5 µM | TGI [9]: 26.6 µM | GI50 [10]: 5.84 µM | TGI [10]: 21.1 µM

O=c1oc2ccc(Cl)cc2c(=O)n1-c1ccc(Cl)cc1F
GI50 [1]: 0.462 µM | GI50 [2]: 0.652 µM | TGI [2]: 9.02 µM | GI50 [3]: 3.33 µM | TGI [3]: > 33.5 µM | GI50 [4]: 1.7 µM | TGI [4]: 10.4 µM | GI50 [5]: 3.83 µM | TGI [5]: > 95 µM | GI50 [6]: 0.285 µM | TGI [6]: 1.97 µM | GI50 [7]: 0.512 µM | TGI [7]: 8.32 µM | GI50 [8]: 0.331 µM | TGI [8]: 3.22 µM | GI50 [9]: 0.846 µM | TGI [9]: 24.7 µM | GI50 [10]: 0.532 µM | TGI [10]: 3.79 µM

CCOC(=O)[C@H](CSSc1ncnc2cc[nH]c12)NC(=O)[C@@H](C)c1ccc2cc(OC)ccc2c1
GI50 [1]: 0.385 µM | TGI [1]: > 100 µM | GI50 [2]: 1.64 µM | TGI [2]: > 100 µM | GI50 [3]: 1.38 µM | TGI [3]: > 100 µM | GI50 [4]: 0.532 µM | TGI [4]: > 100 µM | GI50 [5]: 0.929 µM | TGI [5]: > 100 µM | GI50 [6]: 7.92 µM | TGI [6]: > 100 µM | GI50 [7]: 2.1 µM | TGI [7]: > 100 µM | GI50 [8]: 0.303 µM | TGI [8]: > 31.5 µM | GI50 [9]: 0.213 µM | TGI [9]: > 100 µM | GI50 [10]: 0.687 µM | TGI [10]: > 100 µM

C/C(=C\c1ccn(-c2ccc(N)c(C(F)(F)F)c2)n1)[C@@H]1C[C@@H]2O[C@]2(C)CCC[C@H](C)[C@H](O)[C@@H](C)C(=O)C(C)(C)[C@@H](O)CC(=O)O1
GI50 [1]: 0.00813 µM | TGI [1]: 8.64 µM | GI50 [2]: 0.00743 µM | TGI [2]: > 32.5 µM | GI50 [3]: 0.00542 µM | TGI [3]: 6.13 µM | GI50 [4]: 0.0117 µM | TGI [4]: > 32.5 µM | GI50 [5]: 0.025 µM | TGI [5]: > 26.1 µM | GI50 [6]: 0.0103 µM | TGI [6]: 11 µM | GI50 [7]: 0.0268 µM | TGI [7]: > 29.2 µM | GI50 [8]: 0.0085 µM | TGI [8]: 0.0576 µM | GI50 [9]: 0.0113 µM | TGI [9]: 0.0969 µM | GI50 [10]: 0.0624 µM | TGI [10]: 8.31 µM
